# Results: patent publication US5177087A, “Cyclic amine compounds and their use” (Takeda Chemical Industries, Ltd., priority 1989, dated 1993)
# Where a name gives a salt, the structure may show the parent alone. Read-outs that look alike come from different tables or passages of the source.
# Assays:
# [1] = Antihypoxic action: survival time of mice in a decompressed desiccator; assay type: in vivo, Male mice (ICR/Jcl strain); conditions: Mus musculus, ip, read-out: survival time of drug-treated group (mean survival time of control group = 100)
# Procedure: Male mice (ICR/Jcl strain, 5-6 weeks old) were divided into two groups, i.e. a control group and a drug-treated group. A desiccator was decompressed to an internal pressure of 35 mmHg with a vacuum pump and, then, connected to two desiccators housing mice of the two groups, respectively. After an equilibrium was established in internal pressure among the desiccators, the time to the onset of respiratory arrest of each mouse in each group was measured and regarded as survival time. Then, taking the mean survival time in the control group as 100, the survival time of the drug-treated group was expressed in percentage (Table 7). The test drug was administered intraperitoneally 30 minutes before induction of hypoxia. The control group received physiological saline.
# [2] = Antiedematous action on the brain: microsphere-induced cerebral edema, water, sodium and ion contents of hemisphere; assay type: in vivo, Male rats (Wistar/Jcl); conditions: 72 hours after microsphere infusion
# Text: Male rats (Wistar/Jcl, 11 weeks old) underwent cervical incision under ether anesthesia and the pterygopalatine artery and external carotid artery were ligated. After blockade of the common carotid artery bloodstream, a cannula was inserted retrogradely from the external carotid artery and indwelt at the origin of the internal carotid artery. Then, a suspension of carbon microspheres (50±10 μm in diameter) in 20% dextran was infused selectively into the internal carotid artery through the indwelt cannula over a period of about 10 seconds. Seventy-two hours after infusion, the brain was removed and divided into the right and left cerebral hemispheres. Then, the water, sodium and ion contents of each hemisphere were determined. The test drug was administered intraperitoneally 30 minutes before and 5 hours after infusion of the microspheres on the day of microsphere infusion and twice a day, i.e. in the morning and in the afternoon, thereafter till the end of the experiment. 5% Gum arabic was used in the control group.
# cholinesterase = target: T1, cholinesterase (Rattus norvegicus, UniProt P37136); assay: Anti-cholinesterase action, (acetyl-[^3 H])-acetylcholine as substrate, S1 fraction of cerebral cortex homogenate; assay type: biochemical, male Wistar rats
# T1 construct: the S1 fraction of the cerebral cortex homogenate from male Wistar rats was used as cholinesterase source; from tissue; host or cells: cerebral cortex homogenate, S1 fraction, male Wistar rats
# Procedure: The anti-cholinesterase action of the compound of the present invention was investigated using (acetyl-[^3 H])-acetylcholine. Thus, the S1 fraction of the cerebral cortex homogenate from male Wistar rats was used as cholinesterase source, and (acetyl-[^3 H])-acetylcholine as the substrate and the compound of the invention as the test compound were incubated for 30 minutes and after termination of the reaction, a toluene scintillator was added. The mixture was shaken and the radioactivity of the reaction product [^3 H]-acetic acid in the toluene layer was measured with a scintillation counter to estimate the cholinesterase-antagonizing activity.
# The anticholinesterase activity of the test compound was expressed as 50% inhibitory concentration (IC50) in Table 9.
# [3] = Action on scopolamine-induced impairment of spontaneous alternation in a T-maze; assay type: in vivo, rats
# Procedure: The nootropic effect of the compound of the invention (Example 59) was investigated using spontaneous alternation in rats (Murray and Fibiger, Behav Neurosci. 100, 23-32, 1986) as an indicator. Nine-week-old rats were used. Feeding was restricted so that the body weight of the rat would be reduced to about 80% of free-feeding weight. Then, training was started. Training consisted of 11 trials. In the first trial one food pellet (45 mg) was placed in each of food receptacles set at ends of two arms and the rat was allowed to select either arm freely for the food reward. In the subsequent 10 trials from the second to the eleventh trial, the diet was placed only on the arm opposite to the arm which had been selected immediately before. The selection of the arm where the diet was placed was regarded as a correct response. In each acquistion trial, the rat was first placed in a home compartment and 15 seconds later the door was opened to let the animal explore freely and select either arm. The rat was brought back to the home compartment after it had ingested the pellet in the case of a correct response or after it had reached the food receptacle in the case of an incorrect response. In the experiment, the rats which had attained the correct response rate of not less than 80% were used. Scopolamine bromide was administered intraperitoneally in a dose of 0.3 mg/kg 30 minutes before the beginning of the experiment and the test compound (Example 59) was administered orally 30 minutes before scopolamine administration. The results of the experiment are expressed in correct response rate. For the analysis of significant difference between the groups, Student's t-test (two-tailed) was used. In the first experiment, groups of 7-9 rats were used, and in the second experiment, groups of 12-14 rats were used. The results are shown in Table 10 (the results in the second experiment are shown in the parentheses).
# [4] = 10 mg/kg, i.p., 30 minutes before hypoxia, 35 mmHg
# [5] = 30 minutes incubation, read-out: Anticholinesterase activity IC50
# T1 sequence (P37136 32-614): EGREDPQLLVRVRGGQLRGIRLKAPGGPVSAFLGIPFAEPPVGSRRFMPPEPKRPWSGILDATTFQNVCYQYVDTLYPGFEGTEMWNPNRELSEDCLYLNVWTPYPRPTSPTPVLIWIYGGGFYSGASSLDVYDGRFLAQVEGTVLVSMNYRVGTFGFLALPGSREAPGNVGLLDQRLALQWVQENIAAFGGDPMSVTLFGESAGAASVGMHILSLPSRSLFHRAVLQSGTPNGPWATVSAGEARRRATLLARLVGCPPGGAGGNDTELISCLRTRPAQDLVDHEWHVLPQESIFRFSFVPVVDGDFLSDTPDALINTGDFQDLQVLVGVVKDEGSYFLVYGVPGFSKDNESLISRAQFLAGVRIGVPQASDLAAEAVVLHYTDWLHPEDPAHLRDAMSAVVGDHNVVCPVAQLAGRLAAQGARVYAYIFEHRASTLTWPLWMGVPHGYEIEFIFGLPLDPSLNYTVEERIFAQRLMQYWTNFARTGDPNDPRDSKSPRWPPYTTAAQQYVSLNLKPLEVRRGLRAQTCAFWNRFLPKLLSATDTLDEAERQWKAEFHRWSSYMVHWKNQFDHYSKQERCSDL
smiles,measurement,setting,value
O=C(c1ccc(N2CCN(Cc3ccccc3)CC2)cc1)C1CCNCC1 [Example 11-4],response vs control in vivo at 0.1 mg/kg,[1],116 ± 11%
same,response vs control in vivo at 0.5 mg/kg,[1],148 ± 17%
same,response vs control in vivo at 2 mg/kg,[1],288 ± 82%
same,response vs control in vivo at 10 mg/kg,[1]; [4],216 ± 53%
"OC(c1ccncc1)c1ccc(N2CCCCC2)cc1 (stereo not drawn) [Example 12, 4-[(α-Hydroxy-4-piperidino)benzyl]pyridine dihydrochloride]",response vs control in vivo at 0.1 mg/kg,[1],84 ± 4%
same,response vs control in vivo at 0.5 mg/kg,[1],152 ± 19%
same,response vs control in vivo at 2 mg/kg,[1],163 ± 23%
same,response vs control in vivo at 10 mg/kg,[1]; [4],132 ± 8%
OC(c1ccc(N2CCC(Cc3ccccc3)CC2)cc1)C1CCNCC1 (centres unmarked) [Example 14-3],response vs control in vivo at 0.1 mg/kg,[1],108 ± 9%
same,response vs control in vivo at 0.5 mg/kg,[1],162 ± 24%
same,response vs control in vivo at 2 mg/kg,[1],137 ± 11%
same,response vs control in vivo at 10 mg/kg,[1]; [4],398 ± 95%
OC(c1ccc(N2CCN(Cc3ccccc3)CC2)cc1)C1CCNCC1 (centres unmarked) [Example 14-4],response vs control in vivo at 0.5 mg/kg,[1],152 ± 28%
same,response vs control in vivo at 2 mg/kg,[1],188 ± 22%
same,response vs control in vivo at 10 mg/kg,[1]; [4],197 ± 32%
OC(c1ccc(N2CCCCC2)cc1N1CCCCC1)C1CCNCC1 (centres unmarked) [Example 14-6],response vs control in vivo at 0.1 mg/kg,[1],120 ± 7%
same,response vs control in vivo at 0.5 mg/kg,[1],154 ± 17%
same,response vs control in vivo at 2 mg/kg,[1],143 ± 17%
same,response vs control in vivo at 10 mg/kg,[1]; [4],123 ± 6%
same,Water,"[2]; 50 mg × 7, i.p., control group 80.35 ± 0.22",79.36 ± 0.13%
same,Na,"[2]; 50 mg × 7, i.p., control group 305 ± 19",256 ± 5 mEq/kg
same,K,"[2]; 50 mg × 7, i.p., control group 488 ± 11",506 ± 5 mEq/kg
"CN(C)c1ccc(CC2CCNCC2)cc1 [Example 20, 4-(4-Dimethylaminobenzyl)piperidine dihydrochloride]",response vs control in vivo at 0.5 mg/kg,[1],99 ± 5%
same,response vs control in vivo at 2 mg/kg,[1],118 ± 5%
same,Water,"[2]; 5 mg × 7, i.p., control group 80.59 ± 0.19",79.80 ± 0.19%
same,Na,"[2]; 5 mg × 7, i.p., control group 306 ± 10",268 ± 8 mEq/kg
same,K,"[2]; 5 mg × 7, i.p., control group 488 ± 2",499 ± 5 mEq/kg
"c1cc(N2CCCCC2)ccc1CC1CCNCC1 [Example 21-1, 4-(4-piperidinobenzyl)piperidine dihydrochloride]",response vs control in vivo at 0.1 mg/kg,[1],133 ± 11%
same,response vs control in vivo at 0.5 mg/kg,[1],155 ± 21%
same,response vs control in vivo at 2 mg/kg,[1],231 ± 59%
same,response vs control in vivo at 10 mg/kg,[1],277 ± 55%
c1ccc(CC2CCN(c3ccc(CC4CCNCC4)cc3)CC2)cc1 [Example 21-2],response vs control in vivo at 0.1 mg/kg,[1],165 ± 26%
same,response vs control in vivo at 0.5 mg/kg,[1],147 ± 14%
same,response vs control in vivo at 2 mg/kg,[1],147 ± 8%
same,response vs control in vivo at 10 mg/kg,[1]; [4],280 ± 59%
"O=C(CCC1CCN(Cc2ccccc2)CC1)c1ccc(N2CCCC2)cc1 [Example 59, 1-Benzyl-4-[2-(4-pyrrolidinobenzoyl)ethyl]piperidine]",IC50,"cholinesterase; Anticholinesterase activity IC50, 30 minutes incubation",27 nM
same,Mean correct response rate ± standard error,"[3]; 3 mg/kg p.o. + scopolamine 0.3 mg/kg i.p., first experiment, scopolamine control 53.8 ± 4.6",61.4 ± 7.1
same,ameliorative effect on correct response rate,[3]; 10 mg/kg,significant ameliorative effect
same,antagonism of the decrease of correct response rate by scopolamine,[3]; 3 and 10 mg/kg p.o.,dose-dependently antagonized
O=C(CCC1CCN(Cc2ccccc2)CC1)c1ccc(N2CCCCC2)cc1 [Example 60-1],IC50,cholinesterase; [5],52 nM
O=C(CCC1CCN(Cc2ccccc2)CC1)c1ccc(N2CCCCCC2)cc1 [Example 60-2],IC50,cholinesterase; [5],250 nM
CN(C)c1ccc(C(=O)CCC2CCN(Cc3ccccc3)CC2)cc1 [Example 60-3],IC50,cholinesterase; [5],53 nM
CCNc1ccc(C(=O)CCC2CCN(Cc3ccccc3)CC2)cc1 [Example 60-4],IC50,cholinesterase; [5],98 nM
O=C(CCC1CCN(Cc2ccccc2)CC1)c1ccc(N2CCOCC2)cc1 [Example 60-5],IC50,cholinesterase; [5],10 nM
O=C(CCC1CCN(Cc2ccccc2)CC1)c1ccc(-n2ccnc2)cc1 [Example 60-6],IC50,cholinesterase; [5],20 nM
CN1CCN(c2ccc(C(=O)CCC3CCN(Cc4ccccc4)CC3)cc2)CC1 [Example 60-7],IC50,cholinesterase; [5],8.4 nM
CNc1ccc(C(=O)CCC2CCN(Cc3ccccc3)CC2)cc1 [Example 60-8],IC50,cholinesterase; [5],150 nM
O=C(CCC1CCN(Cc2ccccc2)CC1)c1ccc(N2CCCC2)cc1 [Example 60-10],IC50,cholinesterase; [5],40 nM
O=C(CCC1CCN(Cc2ccccc2)CC1)c1ccc(N2CCCC2)cc1 [Example 60-11],IC50,cholinesterase; [5],32 nM
O=C(CCC1CCN(Cc2ccccc2)CC1)c1ccc(N2CCCC2)cc1 [Example 60-12],IC50,cholinesterase; [5],28 nM
CN(C)c1ccc(C(=O)CCC2CCN(Cc3ccccc3)CC2)cc1 [Example 60-13],IC50,cholinesterase; [5],48 nM
CN1CCN(c2ccc(C(=O)CCC3CCN(Cc4ccccc4)CC3)cc2)CC1 [Example 60-14],IC50,cholinesterase; [5],6.8 nM
O=C(CCC1CCN(Cc2ccccc2)CC1)c1ccc(N2CCCCC2)cc1 [Example 60-15],IC50,cholinesterase; [5],61 nM
O=C(CCC1CCN(Cc2ccccc2)CC1)c1ccc(N2CCNCC2)cc1 [Example 60-17],IC50,cholinesterase; [5],6.1 nM
CC(=O)N1CCN(c2ccc(C(=O)CCC3CCN(Cc4ccccc4)CC3)cc2)CC1 [Example 60-19],IC50,cholinesterase; [5],2.9 nM
O=C(CCC1CCN(Cc2ccccc2)CC1)c1ccc(N2CCOCC2)cc1 [Example 60-20],IC50,cholinesterase; [5],15 nM
O=C(CCC1CCN(Cc2ccccc2)CC1)c1ccc(N2CCN(C(c3ccccc3)c3ccccc3)CC2)cc1 [Example 60-21],IC50,cholinesterase; [5],710 nM
O=C(CCC1CCN(Cc2ccccc2)CC1)c1ccc(NCCN2CCCCC2)cc1 [Example 60-22],IC50,cholinesterase; [5],17 nM
"O=C(CCCC1CCN(Cc2ccccc2)CC1)c1ccc(N2CCCC2)cc1 [Example 69, 1-Benzyl-4-[3-(4-pyrrolidinobenzoyl)propyl]piperidine fumarate]",IC50,cholinesterase; [5],220 nM
